In patent US20110135738A1, “SINGLE DOSAGE PHARMACEUTICAL FORMULATION COMPRISING EPROSARTAN MESYLATE” (LEK Pharmaceutical S. D. D., priority 2008, published 2011):

What was measured:
[1] = at RH over 60%; cited from earlier work
[2] = Flowability of powder / final mixture; format: physicochemical; conditions: drug per se
[3] = cited from earlier work
[4] = oral; cited from earlier work
[5] = X-ray diffraction analysis of eprosartan mesylate form / physical stability; format: physicochemical; conditions: ambient temperature and humidity
Method: During the dry granulation processes using different excipients from the list above, physical stability of the eprosartan mesylate anhydrate was investigated. […] The final tablet form and placebo powder were analyzed by X-ray diffraction (XRD) pattern to confirm presence of anhydrous form of eprosartan mesylate.
Diffractograms were collected on X′Pert PRO MPD diffractometer using CuKα radiation.
Data were recorded from 2 do 40° 2θ; in steps of 0.033° 2θ; with the integration times 50 s (routine testing) and from 4 do 20° 2θ; in steps of 0.033° 2θ; with the integration times 2000 s (to achieve lower LOD). The range for measurements with longer integration times was chosen according to the known diffractograms of eprosartan mesylate crystalline forms, which all have characteristic peaks in the carefully measured range between 4 and 20° 2theta.

CCCCc1ncc(/C=C(\Cc2cccs2)C(=O)O)n1Cc1ccc(C(=O)O)cc1.CS(=O)(=O)O [Eprosartan mesylate, (E)-α-[2-n-butyl-1-[(4-carboxyphenyl)methyl]-1H-imidazol-5-yl]methylene-2-thiophenepropionic acid monomethanesulfonate]
interconversion of anhydrous form [1]: interconverts to eprosartan mesylate mono- and later to dihydrate
flowability of eprosartan mesylate [2]: below 0.15 g/sec
permeability across the intestinal epithelium [3]: low permeability
bioavailability [4]: 13%
physical and chemical stability of anhydrous form [5]: physically and chemically stable
